Source: paper PMC11079029, “Intramolecular autoinhibition regulates the selectivity of PRPF40A tandem WW domains for proline-rich motifs” (Nature Communications, 2024)
Where two headings read alike, the source gives them in different places.

Tests used:
PRPF40A WW12 = assay: NMR titration (1H-15N HSQC, chemical shift perturbation) of WW12 with polyproline or SF1 peptides; format: binding, human; conditions: 15N-labelled WW12 around 100 μM, unlabelled GB1-tagged peptide, 25 °C
Protocol: (§1) NMR samples were prepared at concentrations ranging 100–1000 μM in buffer containing 20 mM sodium phosphate pH 6.5, 100 mM NaCl, 1 mM DTT, and 10% or 100% D2O, and measured at 25 °C (except stated otherwise) in 900-, 800-, 600- and 500-MHz Bruker Avance III NMR spectrometers equipped with cryogenic triple resonance gradient probes. Topspin 4.1.0 (Bruker) software was used for NMR data acquisition. Spectra were processed with NMRpipe 8.9[76] and analyzed using ccpnNMR Analysis 2.5 software.
(§2) ^15N-labeled PRPF40A proteins (WW1, WW2, WW12, and N-extWW12) at around 100 μM concentration were titrated with increasing concentration ratios of polyproline or SF1 peptides (GB1 tagged) until reaching saturation, when possible; ^1H-^15N HSQC experiments and in some cases ^1H-^13C HSQC experiments (using double-labeled PRPF40A proteins) were acquired at each titration point. The chemical shift perturbation (CSP) was weighted using the Eqs. (1) and (2)[89].1 CSP(HN)=0.5⋅ΔδH2+0.14⋅ΔδN2 2 CSP(HC)=0.5⋅ΔδH2+0.3⋅ΔδC2

PRPF40A N-ext-WW12 = assay: NMR titration (1H-15N and 1H-13C HSQC) of N-ext-WW12 with SF1 peptides; format: binding, human; conditions: NMR titration of N-ext-WW12, ratios 1:1 up to 1:4
Protocol: as §1, §2

[1] = target: T1, PRPF40A N-ext-WW12 (residues 56–236) (Homo sapiens, UniProt O75400); assay: ITC of N-terminally extended WW12 with SF1 peptides; format: binding; conditions: for Kd: ITC
T1 construct: WW12long 141–248, and N-ext-WW12 56–236; 6xHis-TEV site (N, cleaved yes); made in house; host or cells: Escherichia coli BL21(DE3)
T1 sequence (O75400 56-236): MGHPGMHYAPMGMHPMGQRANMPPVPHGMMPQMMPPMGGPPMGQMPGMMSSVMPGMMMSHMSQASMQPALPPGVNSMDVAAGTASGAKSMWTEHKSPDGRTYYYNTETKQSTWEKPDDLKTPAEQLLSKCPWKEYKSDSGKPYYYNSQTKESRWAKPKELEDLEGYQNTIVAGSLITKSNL
Excerpt: (§3) PRPF40A isoform 1 sequences (N-ter 1–310, WW12short 141–223, WW12 141–236, WW12long 141–248, and N-ext-WW12 56–236) were amplified from a purchased DNA fragment (IDT) and cloned using NcoI and KpnI restriction sites into a pETM11 vector encoding 6xHis and TEV cleavage site as a N-terminal tag. SF1 (Pro A 410–468, Pro B 468–539, Pro C 539–594, Pro D 594–639, Pro BC 468–594, Pro CD 539–639, Pro BCD 468–639 and Pro ABCD 410–639) and SF3A1 (Middle Pro 364–413 and C-ter Pro 552–683) constructs were prepared in a similar manner using a pET24 vector with a 6xHis, GB1 and TEV cleavage site as N-terminal fusion cassette. 16-mer SF1 constructs (Table 1) and polyproline peptides (P6, P8, P10, P13, P16, P19, P22, P25, and P29) were cloned in the same pET24 vector with GB1 tag by direct ligation of purchased oligonucleotides (Eurofins). All peptide sequences contained N and C-terminal common residues to avoid boundary effects on binding: TEVsite-GAMSGS-peptide-SGSN. Mutants of PRPF40A WW12 and N-ext-WW12 constructs were prepared by site-directed mutagenesis. The truncated version of PRPF40A WW12 (141-217) was a gift from Dr. María Macías (IRB, Spain). All used oligonucleotides were purchased from Eurofins Genomics and are shown in Supplementary Table 6.
(§4) Resuspended cell pellets in 20 mM Tris pH 8.0, 500 mM NaCl, 10 mM imidazole, 0.5 mM TCEP, and protease inhibitors mix (SERVA) were lysed by cell disruption in a French press. Clear lysates, after centrifugation (at 18,000 g) and filtering, were loaded into Ni-NTA resin. The resin was then washed with 20 mM imidazole containing buffer, and the desired protein was eluted with 500 mM imidazole. PRPF40A constructs were then subjected to TEV protease treatment (homemade at a final concentration of ≈50 μg/ml), dialyzed overnight at 4 °C against an imidazole-free buffer, and then loaded again to Ni-NTA resin; desired digested proteins were obtained in the flow-through and wash fractions while uncleaved protein, TEV protease, and impurities remained bound to the resin. Cleaved PRPF40A proteins and GB1-tagged SF1, SF3A1, and polyproline constructs were further purified by size-exclusion chromatography on a HiLoad 16/60 Superdex 75 column (GE Healthcare) equilibrated with 20 mM sodium phosphate, pH 6.5, 100 mM NaCl and 1 mM DTT buffer. For the purification of PRPF40A WW12 in complex with SF1 peptide, cell pellets of recombinant expression for both proteins were mixed and processed together following the Ni-NTA—TEV digestion—reverse Ni-NTA—SEC-75 protocol; where the complex remained bound in a 1:1 stoichiometry throughout the whole purification (corroborated by NMR). Molecular weight of each sample was confirmed by mass spectrometry, purity was checked by PAGE-SDS, and protein concentrations were determined from the aromatic contribution to the UV absorbance spectra at 280 nm.
(§5) Experiments were conducted on a MicroCAl PEAQ-ITC (Malvern Instruments, UK) at 25 °C in 20 mM sodium phosphate pH 6.5 and 100 mM NaCl. PRPF40A was titrated into N-terminal GB1 tagged SF1 or polyproline constructs and vice versa with similar results. Protein concentrations in the cell were around 20–40 μM, while in the syringe ranged between 200 and 500 μM. Experiments were performed at least in duplicate with injections of 1.5 μL (0.4 μL for first point) separated by 150 s delays to recover thermal power baseline and continuous stirring in the cell (750 rpm) for correct mixing. The reference cell was filled with water in all experiments. Data were processed by removing the blank experiment (using digested GB1 fusion protein) and adjusted to one-site binding model with Malvern PEAQ-ITC Analysis software (Malvern Instruments, UK).

[2] = target: T2, PRPF40A WW12 (tandem WW domains, residues 141–236) (Homo sapiens, UniProt O75400); assay: ITC of PRPF40A WW12 with GB1-tagged proline-rich peptides and constructs; format: binding
T2 construct: WW12 141–236, WW12long 141–248, and N-ext-WW12 56–236; 6xHis-TEV site (N, cleaved yes); made in house; host or cells: Escherichia coli BL21(DE3)
Excerpt: as §3, §4, §5

## PPLPPGAPPPPPPPPP [SF1WWbs]
PRPF40A WW12
  binding by NMR titration, exchange regime: slow exchange regime
PRPF40A N-ext-WW12
  displacement of the intramolecular N-terminal motifs (methyl signals Val 80, Val 129): able to displace the intramolecular interaction
[1]; ITC as E7
  N (sites): 0.88 ± 0.03 sites
[1]; ITC binding enthalpy, as E7
  DH: -15.8 ± 0.884 kcal/mol
[1]; 25 °C, 20 mM sodium phosphate pH 6.5, 100 mM NaCl, GB1-tagged SF1 16-mer, N-terminally extended WW12, at least duplicates, listed as 575 PPLPPGAPPPPPPPPP 590, read-out: Kd
  Kd: 8710 ± 880 nM
[1]; 25 °C, 20 mM sodium phosphate pH 6.5, 100 mM NaCl, GB1-tagged SF1 16-mer, N-terminally extended WW12, at least duplicates, read-out: Kd
  Kd: < 10000 nM
[1]; SF1 peptides, individual value 1 (replicate 1), read-out: Kd Values with Nter Ext WW12, individual value
  Kd: 9190 nM
[1]; SF1 peptides, individual value 2 (replicate 2), read-out: Kd Values with Nter Ext WW12, individual value
  Kd: 8220 nM
[2]; ITC as E1, peptide in the cell, WW tandem in the syringe, N >1 = more than one WW tandem per peptide
  N (sites): 1.00 ± 0.03 sites
[2]; ITC binding enthalpy, as E1
  DH: -19.6 ± 0.406 kcal/mol
[2]; ITC, 25 °C, 20 mM sodium phosphate pH 6.5, 100 mM NaCl, GB1-tagged polyproline or SF1 16-mer peptide in the cell, WW tandem in the syringe, one-site model, apparent Kd, average of at least duplicates
  Kd (µM): low micromolar range
[2]; ITC, SF1 peptides, individual value 1 (replicate 1), read-out: Kd Values with WW12, individual value
  Kd: 1290 nM
[2]; ITC, SF1 peptides, individual value 2 (replicate 2), read-out: Kd Values with WW12, individual value
  Kd: 1240 nM
[2]; ITC, SF1 peptides, individual value 3 (replicate 3), read-out: Kd Values with WW12, individual value
  Kd: 1620 nM
[2]; ITC, SF1 peptides, individual value 5 (replicate 5), read-out: Kd Values with WW12, individual value
  Kd: 1290 nM
[2]; ITC, mean over the peptides of the classification group, read-out: Kd Values with WW12, averaged group
  Kd: 1400 nM
